Measurements taken from PubChem BioAssay (NCI).
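Method: 48-hour compound exposure of cells in 96-well plates, five concentrations, linear interpolation of endpoints. GI50 marks 50% less growth. TGI: concentration producing complete growth inhibition.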

Legend:
Assay in all cases: NCI tumour cell line growth inhibition, 48 h
LOX IMVI melanoma = test system: LOX IMVI melanoma
SF-295 CNS = test system: SF-295 CNS
HS 578T breast = test system: HS 578T breast
EKVX NSCLC = test system: EKVX NSCLC
SK-MEL-2 melanoma = test system: SK-MEL-2 melanoma
M14 melanoma = test system: M14 melanoma
NCI-H522 lung = test system: NCI-H522 lung
K-562 leukemia = test system: K-562 leukemia
BT-549 breast = test system: BT-549 breast
ACHN renal = test system: ACHN renal

| Compound | GI50 (LOX IMVI melanoma) [µM] | TGI (LOX IMVI melanoma) [µM] | GI50 (SF-295 CNS) [µM] | TGI (SF-295 CNS) [µM] | GI50 (HS 578T breast) [µM] | TGI (HS 578T breast) [µM] | GI50 (EKVX NSCLC) [µM] | TGI (EKVX NSCLC) [µM] | GI50 (SK-MEL-2 melanoma) [µM] | TGI (SK-MEL-2 melanoma) [µM] | GI50 (M14 melanoma) [µM] | TGI (M14 melanoma) [µM] | GI50 (NCI-H522 lung) [µM] | TGI (NCI-H522 lung) [µM] | GI50 (K-562 leukemia) [µM] | TGI (K-562 leukemia) [µM] | GI50 (BT-549 breast) [µM] | TGI (BT-549 breast) [µM] | GI50 (ACHN renal) [µM] | TGI (ACHN renal) [µM] |
| --- | --- | --- | --- | --- | --- | --- | --- | --- | --- | --- | --- | --- | --- | --- | --- | --- | --- | --- | --- | --- |
| CNc1nc(C)c(-c2nc(Nc3cccc(S(N)(=O)=O)c3)ncc2F)s1 | 0.0223 | 3.94 | 0.0406 | 6.79 | 0.0429 | 3.97 | 0.0747 | 3.78 | 0.0358 | 0.0939 | 0.0305 | 1.58 | 0.0449 | 0.137 | 0.0668 | 24.4 | 0.0228 | 0.0753 | 0.0266 | 11.7 |
| Nc1nc2c(c3ncccc13)C(c1ccc(Cl)c(Cl)c1)Cc1ncccc1-2 (stereo not drawn) | 4.4 | 16.2 | 2.82 | 7.94 | 3.62 | 19.2 | 4.86 | 18.4 | 3.79 | 15.8 | 3.2 | 12.3 | 1.5 | 5.1 | 2.67 | 17.3 | 3.73 | 16.7 | 4.55 | 16 |
| CNC(=O)c1c(NC(=O)c2cccc(C(F)(F)F)c2)sc2c1CCC(=O)C2 | 0.339 | 1.66 | 0.36 | 1.88 | 0.425 | 45.9 | 0.593 | > 21.7 | 0.874 | 3.5 | 0.417 | 4 | 0.075 | 0.549 | 0.135 | > 100 | 0.352 | 2.83 | 0.323 | 1.34 |
| COc1ccc(C(O)c2cc3c(N)c(C(=O)Nc4cccc(Cl)c4C)sc3nc2C)cc1 (stereo not drawn) | 0.838 | 1.55 | 0.881 | 1.66 | 0.774 | 1.79 | 0.886 | 2.16 | 0.909 | 1.84 | 0.872 | 1.78 |  |  | 0.198 | 1.45 | 0.888 | 1.77 | 0.877 | 1.63 |
| Cc1cc(=O)c2cc(N=Cc3ccc([N+](=O)[O-])o3)ccc2o1 |  | > 100 |  | > 100 |  | > 100 |  | > 100 |  | > 100 |  | > 100 |  | > 100 |  | > 100 |  | > 100 |  | > 100 |
| C=C1C(=O)O[C@H]2[C@H]1CC/C(CNC(=O)/C=C/c1cccc(OC)c1)=C\CC[C@@]1(C)O[C@@H]21 | 1.28 | 2.63 | 5.54 | 19.3 | 2.2 | 11.2 | 1.85 | 5.62 | 1.47 | 3.31 | 1.42 | 3.11 | 0.435 | 1.77 | 1.31 | 18.6 | 1.57 | 3.66 | 1.14 | 2.67 |
